Source: patent US12157713B2, “Conjugated oligoelectrolytes as antimicrobial agents” (Nanyang Technological University, priority 2018, dated 2024)
Where two headings read alike, the source gives them in different places.

Key:
[1] = test system: E. coli K12; assay: MIC by broth microdilution against E. coli K12; type: cell-based; conditions: Escherichia coli
Method: The respective minimum inhibition concentration (MIC) of each COE molecule was determined using a broth microdilution method. Briefly, COEs were diluted via a 2-fold dilution series in 100 μL of either Muller Hinton Broth (MHB) for E. coli and S. aureus or Brain Heart Infusion Broth (BHI) for E. faecalis in a 96-well plate to achieve the desired final concentration. Subsequently, each well was inoculated with 100 μL of 1×10^6 colony forming units (CFU) mL^−1 of the respective microorganism in MHB for E. coli or BHI for E. faecalis to achieve an inoculum density of 5×10^5 CFU mL^−1. The plates were then incubated at 37° C. with shaking (200 rpm) for 18 hrs. […] The results were obtained in triplicate.
The MIC values of COE-D4, COE-D6 and COE-D8 against the reference strain E. coli K12, pathogenic E. coli UT189, and the Gram positive pathogen Enterococcus faecalis OG1RF were determined using a broth microdilution method as described in the general method above. The MICs for E. coli K12 were determined to be 128, 16, and 4 μg mL^−1 for COE-D4, COE-D6, and COE-D8, respectively (FIG. 5a). […] This is not surprising as these two organisms differ in the capsular polysaccharides that they expressed, which are known to hinder the uptake of antimicrobials and mitigate their potency (M. A. Campos, et al., Infect. Immun. 2004, 72, 7107-7114). A K-type capsid comprising α2-8-linked sialic acid is excreted by UT189 and is known to be an important virulence factor for this organism (C. Whitfield, et al., Mol. Microbiol. 1999, 31, 1307-1319; G. G. Anderson, et al., Infect. Immun. 2010, 78, 963-975).

[2] = test system: Acinetobacter baumannii ATCC 19606; assay: Single-dose growth inhibition, Ab; type: cell-based
Method: (§1) Inhibition of bacterial growth was determined by measuring the absorbance at 600 nm (OD600), using a Tecan M1000 Pro monochromator plate reader. Growth inhibition was calculated for each well, relative to the reference growths determined from a negative control (media only) and positive control (bacteria without inhibitors) incubated in the same plate. A single dose of 32 μg/mL of COE (final concentration) was used for each test.
(§2) Percentage growth inhibition of an individual sample was calculated based on growth in a reference well determined from negative controls (media only) and positive controls (bacterial/fungal media without inhibitors). Negative inhibition values indicate that the growth rate (or OD600) is higher compared to the reference growth (bacteria/fungi only, set to 0% inhibition). The growth rates for all bacteria and fungi may vary at −/+10%, which were within the reported normal distribution of bacterial/fungal growth. Any significant variations (or outliers/hits) were identified by the modified Z-Score, and the active compounds were selected by a combination of inhibition values and Z-Score.
(§3) A M(i) value of >|2.5| (absolute) would classify the sample as outliers or hits. Active samples were denoted as compounds with inhibition values equal to or above 80% and absolute Z-Score above |2.5| for either replicate (n=2 on different plates). Partial active samples were denoted as compounds with inhibition values from 50% to <80%, or absolute Z-Score below |2.5|.

[3] = Solubility in PBS / aqueous solubility; type: physicochemical
[4] = test system: E. coli K12; assay: SEM of COE-treated E. coli K12; type: cell-based, Escherichia coli; conditions: 32 μg mL^−1 COE, 2 hrs
Method: E. coli K-12 was grown, collected and washed according to the procedure described above (in the uptake measurements). COE solutions (in PBS) were added to a PBS suspension of E. coli K12 (OD600=1.0) to achieve final COE concentrations of 32 μg/mL. After incubating for 2 hrs at room temperature under shaking (200 rpm), the microbes were immediately fixed with 2.5% glutaraldehyde solution at 4° C. overnight. 10 μL of the fixed bacteria suspension was spotted onto the SEM conducting paste and left to dry in air. The bacteria samples were dehydrated with a series of increasingly concentrated ethanol solution (20%-100%). After drying overnight, the samples were coated with platinum and imaged with FESEM (JEOL JSM-6700F) to characterise the morphology of the samples.
Characterisation of treated E. coli K12 by scanning electron microscopy (SEM) COE-treated cells were characterised by SEM. E. coli K12 ([…]) were treated with 32 μg mL^−1 of each COE. […] This is consistent with the proposal that COE insertion disrupts membrane integrity and this effect is of a greater magnitude for COE-D8.

[5] = DSC of treated unilamellar vesicles; conditions: POPE:POPG 85:15 vesicles
Method: POPE (1-palmitoyl-2-oleoyl-phosphatidylethanolamine) and POPG (1-palmitoyl-2-oleoyl-phosphatidylglycerol) were purchased as chloroform stocks from Avanti Polar Lipids. POPE and POPG were mixed to a molar ratio of 85:15 and dried under a gentle stream of nitrogen. The lipid cake obtained was further desiccated for overnight to obtain a thin lipid film. Rehydration of the dried film was carried out by adding 25 mM Tris, 150 mM NaCl, pH 7.5, to a concentration of 4.3 mg/mL, followed by incubation at 45° C. for 2 hrs, under constant stirring using a magnetic stirrer at around 300 rpm. To prepare the unilamellar vesicles, the vesicles suspension was repeatedly extruded through a polycarbonate membrane of 100 nm pores (21 times) at 45° C. The extruded vesicle sample was kept at 4° C. till further use. The vesicle solution was diluted to 0.86 mg/mL with buffer (25 mM Tris, 150 mM NaCl, pH 7.5) or the COE solution (25 mM Tris, 150 mM NaCl, pH 7.5) before the DSC measurements.
Unilamellar vesicles composed of 1-palmitoyl-2-oleoylphosphatidylethanolamine (POPE) and 1-palmitoyl-2-oleoylphosphatidylglycero (POPG) in a molar ratio of 85:15 were prepared in accordance to the general method “Preparation of Small Unilamellar Vesicles” and were used as a generic bacterial model membrane (G. J. Gabriel, et al., Mater. Sci. Eng. R 2007, 57, 28-64).
When subjected to DSC, the main gel-to-liquid-crystal transition peaks broadened after incubation with 8 μg mL^−1 of COE-D8 (FIG. 7a). For COE-D6, a higher concentration (16 μg mL^−1) was needed to change the initial trace (FIG. 7b). […] The perturbation to the cooperative transition of the lamellar phase reflects varying degrees of membrane intercalation. This observation correlates well with solubility and the alkyl chain length (Table 1a). Due to its lower aqueous solubility, COE-D8 is likely to partition more readily into hydrophobic domains of the lipid bilayer, leading to the weakened phase transition observed in the vesicles.

[6] = test system: Escherichia coli FDA control ATCC 25922; assay: Single-dose growth inhibition, Ec; type: cell-based
Method: as §1, §2, §3

[7] = test system: Pseudomonas aeruginosa ATCC 27853; assay: Single-dose growth inhibition, Pa; type: cell-based
Method: as §1, §2, §3

[8] = K12, 18 h, read-out: MIC against E. coli K12
[9] = K12, read-out: MIC against E. coli K12
[10] = K12, read-out: MICeff (MIC×U %)
[11] = ATCC19606, read-out: Growth inhibition Ab
[12] = aqueous buffer, in PBS, read-out: Solubility in PBS
[13] = ATCC25922, read-out: Growth inhibition Ec
[14] = ATCC27853, read-out: Growth inhibition Pa
[15] = PBS (aqueous solubility), read-out: aqueous solubility
[16] = K12, broth microdilution, MHB, 18 hrs, read-out: MIC against E. coli K12
[17] = ATCC19606, 32 μg/mL single dose, n=2, read-out: Growth inhibition Ab
[18] = ATCC25922, 32 μg/mL single dose, n=2, read-out: Growth inhibition Ec
[19] = ATCC27853, 32 μg/mL single dose, n=2, read-out: Growth inhibition Pa

SMILES	MIC [1, 8] [µg/mL]	MIC [1, 9] [µg/mL]	MIC [1, 10] [µg/mL]	inhibition at 32 µg/mL [2, 11] [%]	solubility [3, 12] [µg/mL]	Morphology of treated E. coli K12 by SEM [4]	Concentration needed to change the gel-to-liquid-crystal transition peak (DSC) [5] [µg/mL]	inhibition at 32 µg/mL [6, 13] [%]	inhibition at 32 µg/mL [7, 14] [%]	solubility [3, 15] [µg/mL]	MIC [1, 16] [µg/mL]	inhibition at 32 µg/mL [2, 17] [%]	inhibition at 32 µg/mL [6, 18] [%]	inhibition at 32 µg/mL [7, 19] [%]
C[N+](C)(C)CCCCOc1ccc(/C=C/c2ccc(OCCCC[N+](C)(C)C)cc2)cc1 [COE-D4]	128	128	3.8	< 50	3100	rod-shaped cells with smooth outer surfaces	> 32	< 50	< 50	–	–	–	–	–
C[N+](C)(C)CCCCCCOc1ccc(/C=C/c2ccc(OCCCCCC[N+](C)(C)C)cc2)cc1 [COE-D6]	16	16	2.6	< 50	240	pitting and membrane rupture	16	> 80	< 50	240	–	–	–	–
C[N+](C)(C)CCCCCCCCOc1ccc(/C=C/c2ccc(OCCCCCCCC[N+](C)(C)C)cc2)cc1 [COE-D8]	4	4	2.9	> 80	65	pitting and membrane rupture	8	> 80	50 to 80	–	–	–	–	–
CN(C)CC[N+](C)(C)CCCCCCOc1ccc(/C=C/c2ccc(OCCCCCC[N+](C)(C)CCN(C)C)cc2)cc1 [COE-D62N]	–	–	–	–	–	–	–	–	–	> 4000	8	> 80	> 80	< 50
CN(C)CC[N+](C)(C)CCCCCCCCOc1ccc(/C=C/c2ccc(OCCCCCCCC[N+](C)(C)CCN(C)C)cc2)cc1 [COE-D82N]	–	–	–	–	–	–	–	–	–	–	8	> 80	> 80	50 to 80
